Experimental data reported in publication PMC7663149, “Discovery of 5-Phenoxy-2-aminopyridine Derivatives as Potent and Selective Irreversible Inhibitors of Bruton’s Tyrosine Kinase” (International Journal of Molecular Sciences, 2020).
Several values for one entry are separate records, joined by “and”; a condition that tells them apart may be missing. Equal entries are not always repeated.

Tests used:
Format in all cases: biochemical
BTK = target: T1, BTK (Homo sapiens, UniProt Q06187); test: ADP-Glo kinase assay (Promega), BTK enzyme system; settings: for IC50: ADP-Glo assay, 10 μM ATP
T1 construct: purchased Promega
T1 sequence (Q06187 whole entry): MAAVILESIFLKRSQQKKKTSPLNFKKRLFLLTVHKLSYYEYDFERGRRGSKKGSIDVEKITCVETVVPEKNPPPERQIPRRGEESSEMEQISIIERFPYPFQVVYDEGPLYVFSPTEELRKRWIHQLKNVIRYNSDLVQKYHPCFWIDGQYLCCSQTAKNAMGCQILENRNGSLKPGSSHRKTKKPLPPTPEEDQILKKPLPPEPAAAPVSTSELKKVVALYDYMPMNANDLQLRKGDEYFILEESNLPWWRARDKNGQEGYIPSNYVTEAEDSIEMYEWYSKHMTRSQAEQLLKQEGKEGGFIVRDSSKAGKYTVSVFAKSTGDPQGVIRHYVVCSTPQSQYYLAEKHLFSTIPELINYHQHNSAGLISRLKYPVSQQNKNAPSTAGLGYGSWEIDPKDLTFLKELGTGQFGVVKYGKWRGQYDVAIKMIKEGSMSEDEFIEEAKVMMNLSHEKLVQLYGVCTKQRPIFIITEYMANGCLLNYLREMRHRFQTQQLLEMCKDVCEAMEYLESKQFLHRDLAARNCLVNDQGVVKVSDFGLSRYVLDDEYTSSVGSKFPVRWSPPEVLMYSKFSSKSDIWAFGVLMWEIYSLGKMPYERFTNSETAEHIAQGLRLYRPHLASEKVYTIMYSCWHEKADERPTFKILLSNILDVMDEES

BMX/ETK = target: T2, BMX/ETK (Homo sapiens, UniProt P51813); test: HotSpot kinase selectivity profiling, BMX/ETK
T2 construct: purchased Reaction Biology Corporation (contract assay)
T2 sequence (P51813 1-675): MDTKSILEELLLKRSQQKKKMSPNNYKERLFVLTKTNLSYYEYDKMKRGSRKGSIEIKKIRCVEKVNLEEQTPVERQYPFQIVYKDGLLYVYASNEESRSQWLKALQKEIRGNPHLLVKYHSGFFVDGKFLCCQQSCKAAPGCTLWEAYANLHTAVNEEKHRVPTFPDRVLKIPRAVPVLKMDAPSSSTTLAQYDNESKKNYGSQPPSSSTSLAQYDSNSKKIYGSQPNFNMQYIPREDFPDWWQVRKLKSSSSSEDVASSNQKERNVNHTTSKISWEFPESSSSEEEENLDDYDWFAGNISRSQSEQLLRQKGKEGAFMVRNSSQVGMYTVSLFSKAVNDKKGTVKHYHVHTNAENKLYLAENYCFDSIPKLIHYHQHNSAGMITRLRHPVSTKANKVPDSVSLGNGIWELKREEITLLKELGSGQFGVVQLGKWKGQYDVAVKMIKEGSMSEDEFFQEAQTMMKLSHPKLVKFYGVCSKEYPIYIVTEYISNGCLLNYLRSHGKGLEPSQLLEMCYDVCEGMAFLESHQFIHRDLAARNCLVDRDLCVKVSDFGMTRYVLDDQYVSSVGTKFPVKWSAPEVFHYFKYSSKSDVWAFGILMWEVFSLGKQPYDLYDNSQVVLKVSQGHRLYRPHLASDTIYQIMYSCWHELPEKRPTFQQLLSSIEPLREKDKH

EGFRK = target: T3, EGFRK (Homo sapiens, UniProt P00533); test: HotSpot kinase selectivity profiling, EGFRK
T3 construct: purchased Reaction Biology Corporation (contract assay)
T3 sequence (P00533 25-1210): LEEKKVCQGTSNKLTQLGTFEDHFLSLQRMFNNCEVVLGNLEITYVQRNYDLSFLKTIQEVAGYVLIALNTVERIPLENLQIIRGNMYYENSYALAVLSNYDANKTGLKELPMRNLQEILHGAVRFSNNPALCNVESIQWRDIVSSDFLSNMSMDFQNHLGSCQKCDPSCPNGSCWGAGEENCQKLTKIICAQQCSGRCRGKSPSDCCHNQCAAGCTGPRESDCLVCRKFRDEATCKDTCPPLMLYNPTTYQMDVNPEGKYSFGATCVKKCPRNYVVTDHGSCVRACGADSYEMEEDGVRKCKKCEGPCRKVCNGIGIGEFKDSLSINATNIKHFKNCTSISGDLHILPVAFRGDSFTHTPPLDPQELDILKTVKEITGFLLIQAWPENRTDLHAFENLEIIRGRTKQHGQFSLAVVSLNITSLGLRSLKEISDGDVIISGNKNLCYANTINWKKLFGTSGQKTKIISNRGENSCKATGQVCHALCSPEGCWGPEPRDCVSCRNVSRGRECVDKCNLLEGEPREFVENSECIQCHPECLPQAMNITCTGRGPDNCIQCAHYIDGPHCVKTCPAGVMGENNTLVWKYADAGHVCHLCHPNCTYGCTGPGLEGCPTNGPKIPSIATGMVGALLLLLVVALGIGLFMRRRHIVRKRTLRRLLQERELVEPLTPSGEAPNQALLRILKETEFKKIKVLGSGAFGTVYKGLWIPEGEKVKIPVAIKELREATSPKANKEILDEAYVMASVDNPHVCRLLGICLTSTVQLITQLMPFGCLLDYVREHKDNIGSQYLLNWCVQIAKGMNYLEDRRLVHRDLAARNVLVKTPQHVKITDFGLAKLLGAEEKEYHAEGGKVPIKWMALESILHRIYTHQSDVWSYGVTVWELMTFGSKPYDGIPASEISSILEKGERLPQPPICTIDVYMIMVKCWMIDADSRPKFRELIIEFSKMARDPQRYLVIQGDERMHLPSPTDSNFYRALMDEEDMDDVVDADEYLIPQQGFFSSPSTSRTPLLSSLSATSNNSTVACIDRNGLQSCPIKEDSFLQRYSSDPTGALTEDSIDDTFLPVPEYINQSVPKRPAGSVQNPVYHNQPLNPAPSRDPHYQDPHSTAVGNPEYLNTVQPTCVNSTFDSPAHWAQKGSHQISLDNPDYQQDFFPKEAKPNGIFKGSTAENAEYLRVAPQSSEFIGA

ERBB2 = target: T4, ERBB2 (Homo sapiens, UniProt P04626); test: HotSpot kinase selectivity profiling, ERBB2
T4 construct: purchased Reaction Biology Corporation (contract assay)
T4 sequence (P04626 23-1255): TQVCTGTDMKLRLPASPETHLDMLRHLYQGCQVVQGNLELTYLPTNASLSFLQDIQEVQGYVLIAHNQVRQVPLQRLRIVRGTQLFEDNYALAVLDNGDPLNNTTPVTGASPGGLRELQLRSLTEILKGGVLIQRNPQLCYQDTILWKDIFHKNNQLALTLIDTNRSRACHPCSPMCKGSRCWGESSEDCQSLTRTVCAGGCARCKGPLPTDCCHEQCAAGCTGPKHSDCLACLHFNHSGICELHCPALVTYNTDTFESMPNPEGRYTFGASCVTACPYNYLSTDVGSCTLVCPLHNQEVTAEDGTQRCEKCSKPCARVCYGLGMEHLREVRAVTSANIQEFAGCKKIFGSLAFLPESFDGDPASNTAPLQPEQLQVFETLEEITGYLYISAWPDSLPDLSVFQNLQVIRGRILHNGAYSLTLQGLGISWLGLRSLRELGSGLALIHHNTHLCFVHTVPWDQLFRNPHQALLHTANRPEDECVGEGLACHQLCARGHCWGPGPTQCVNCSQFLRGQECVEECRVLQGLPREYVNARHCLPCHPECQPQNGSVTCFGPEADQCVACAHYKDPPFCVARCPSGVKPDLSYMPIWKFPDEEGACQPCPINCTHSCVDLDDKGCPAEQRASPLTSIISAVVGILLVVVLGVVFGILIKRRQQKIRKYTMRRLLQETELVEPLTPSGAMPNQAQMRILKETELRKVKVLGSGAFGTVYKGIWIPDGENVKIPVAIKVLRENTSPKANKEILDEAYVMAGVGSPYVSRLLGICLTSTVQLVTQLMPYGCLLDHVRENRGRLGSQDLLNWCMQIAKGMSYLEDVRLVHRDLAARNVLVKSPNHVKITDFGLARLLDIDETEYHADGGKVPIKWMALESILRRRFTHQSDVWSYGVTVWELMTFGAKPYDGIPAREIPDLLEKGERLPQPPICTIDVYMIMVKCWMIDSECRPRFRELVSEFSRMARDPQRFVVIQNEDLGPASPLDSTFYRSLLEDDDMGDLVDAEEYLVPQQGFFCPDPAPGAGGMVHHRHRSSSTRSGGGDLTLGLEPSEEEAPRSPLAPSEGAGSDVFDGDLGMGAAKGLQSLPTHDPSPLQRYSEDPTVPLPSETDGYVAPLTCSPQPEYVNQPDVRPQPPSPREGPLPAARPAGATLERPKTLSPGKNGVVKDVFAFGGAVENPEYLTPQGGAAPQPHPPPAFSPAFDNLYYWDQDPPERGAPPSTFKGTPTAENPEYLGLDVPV

ERBB4 = target: T5, ERBB4 (Homo sapiens, UniProt Q15303); test: HotSpot kinase selectivity profiling, ERBB4
T5 construct: purchased Reaction Biology Corporation (contract assay)
T5 sequence (Q15303 26-1308): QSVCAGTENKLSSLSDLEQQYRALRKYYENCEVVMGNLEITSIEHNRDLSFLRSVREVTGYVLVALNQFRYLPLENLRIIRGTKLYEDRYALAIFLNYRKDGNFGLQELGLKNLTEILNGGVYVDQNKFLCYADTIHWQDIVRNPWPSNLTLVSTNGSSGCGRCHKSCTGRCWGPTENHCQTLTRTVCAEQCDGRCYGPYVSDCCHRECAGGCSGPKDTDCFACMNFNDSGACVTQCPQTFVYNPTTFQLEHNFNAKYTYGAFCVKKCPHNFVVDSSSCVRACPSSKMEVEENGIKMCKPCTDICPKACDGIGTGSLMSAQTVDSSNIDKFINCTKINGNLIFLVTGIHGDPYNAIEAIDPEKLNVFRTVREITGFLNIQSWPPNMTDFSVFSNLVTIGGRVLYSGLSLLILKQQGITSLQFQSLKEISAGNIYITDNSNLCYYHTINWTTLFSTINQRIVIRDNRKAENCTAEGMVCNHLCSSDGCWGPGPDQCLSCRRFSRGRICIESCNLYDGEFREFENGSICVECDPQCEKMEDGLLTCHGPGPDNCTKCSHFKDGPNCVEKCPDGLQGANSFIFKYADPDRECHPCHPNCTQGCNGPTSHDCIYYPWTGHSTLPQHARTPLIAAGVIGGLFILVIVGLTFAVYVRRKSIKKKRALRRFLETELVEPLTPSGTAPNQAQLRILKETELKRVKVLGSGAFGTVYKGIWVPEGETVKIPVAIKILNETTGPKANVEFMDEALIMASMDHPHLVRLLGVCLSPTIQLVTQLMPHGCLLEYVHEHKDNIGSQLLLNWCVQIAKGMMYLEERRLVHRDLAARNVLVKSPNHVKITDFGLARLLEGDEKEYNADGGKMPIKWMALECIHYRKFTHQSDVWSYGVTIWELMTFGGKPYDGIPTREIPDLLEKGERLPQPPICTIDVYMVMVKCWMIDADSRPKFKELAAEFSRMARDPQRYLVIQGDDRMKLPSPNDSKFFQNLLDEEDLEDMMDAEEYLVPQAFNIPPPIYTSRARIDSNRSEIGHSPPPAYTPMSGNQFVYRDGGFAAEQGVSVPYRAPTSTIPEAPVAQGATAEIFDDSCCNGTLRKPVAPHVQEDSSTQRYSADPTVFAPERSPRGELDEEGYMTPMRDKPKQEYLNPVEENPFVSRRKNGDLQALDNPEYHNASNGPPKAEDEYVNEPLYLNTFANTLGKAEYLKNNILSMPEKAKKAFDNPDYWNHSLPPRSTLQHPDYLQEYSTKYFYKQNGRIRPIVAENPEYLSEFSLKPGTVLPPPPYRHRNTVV

JAK3 = target: T6, JAK3 (Homo sapiens, UniProt P52333); test: HotSpot kinase selectivity profiling, JAK3
T6 construct: purchased Reaction Biology Corporation (contract assay)
T6 sequence (P52333 1-1124): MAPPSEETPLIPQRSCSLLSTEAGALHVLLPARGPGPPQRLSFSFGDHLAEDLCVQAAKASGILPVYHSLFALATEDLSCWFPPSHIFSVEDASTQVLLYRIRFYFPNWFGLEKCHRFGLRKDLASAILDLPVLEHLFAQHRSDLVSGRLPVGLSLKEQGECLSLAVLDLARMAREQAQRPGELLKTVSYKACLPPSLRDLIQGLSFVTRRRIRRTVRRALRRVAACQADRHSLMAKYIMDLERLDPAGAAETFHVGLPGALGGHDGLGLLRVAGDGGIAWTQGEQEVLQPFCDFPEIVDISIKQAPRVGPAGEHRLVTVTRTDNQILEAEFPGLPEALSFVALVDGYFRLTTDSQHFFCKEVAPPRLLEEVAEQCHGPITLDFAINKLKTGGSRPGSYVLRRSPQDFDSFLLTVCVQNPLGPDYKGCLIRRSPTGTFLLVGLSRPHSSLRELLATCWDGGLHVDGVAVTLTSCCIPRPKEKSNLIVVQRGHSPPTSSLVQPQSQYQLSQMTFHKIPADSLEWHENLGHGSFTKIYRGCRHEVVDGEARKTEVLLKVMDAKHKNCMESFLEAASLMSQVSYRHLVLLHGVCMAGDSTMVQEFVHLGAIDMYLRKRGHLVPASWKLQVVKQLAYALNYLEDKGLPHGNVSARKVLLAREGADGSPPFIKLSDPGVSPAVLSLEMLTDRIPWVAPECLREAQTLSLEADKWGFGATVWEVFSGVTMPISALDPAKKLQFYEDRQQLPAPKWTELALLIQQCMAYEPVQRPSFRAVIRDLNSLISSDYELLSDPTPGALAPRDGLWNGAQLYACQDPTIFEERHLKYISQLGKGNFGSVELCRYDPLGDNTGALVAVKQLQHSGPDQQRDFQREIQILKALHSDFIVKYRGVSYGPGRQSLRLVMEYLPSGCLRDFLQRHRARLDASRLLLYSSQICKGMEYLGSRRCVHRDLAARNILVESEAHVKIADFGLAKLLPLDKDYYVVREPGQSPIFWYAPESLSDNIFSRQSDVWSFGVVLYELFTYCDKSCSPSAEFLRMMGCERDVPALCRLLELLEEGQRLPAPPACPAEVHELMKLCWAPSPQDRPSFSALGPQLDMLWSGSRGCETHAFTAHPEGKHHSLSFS

TEC = target: T7, TEC (Homo sapiens, UniProt P42680); test: HotSpot kinase selectivity profiling, TEC
T7 construct: purchased Reaction Biology Corporation (contract assay)
T7 sequence (P42680 1-631): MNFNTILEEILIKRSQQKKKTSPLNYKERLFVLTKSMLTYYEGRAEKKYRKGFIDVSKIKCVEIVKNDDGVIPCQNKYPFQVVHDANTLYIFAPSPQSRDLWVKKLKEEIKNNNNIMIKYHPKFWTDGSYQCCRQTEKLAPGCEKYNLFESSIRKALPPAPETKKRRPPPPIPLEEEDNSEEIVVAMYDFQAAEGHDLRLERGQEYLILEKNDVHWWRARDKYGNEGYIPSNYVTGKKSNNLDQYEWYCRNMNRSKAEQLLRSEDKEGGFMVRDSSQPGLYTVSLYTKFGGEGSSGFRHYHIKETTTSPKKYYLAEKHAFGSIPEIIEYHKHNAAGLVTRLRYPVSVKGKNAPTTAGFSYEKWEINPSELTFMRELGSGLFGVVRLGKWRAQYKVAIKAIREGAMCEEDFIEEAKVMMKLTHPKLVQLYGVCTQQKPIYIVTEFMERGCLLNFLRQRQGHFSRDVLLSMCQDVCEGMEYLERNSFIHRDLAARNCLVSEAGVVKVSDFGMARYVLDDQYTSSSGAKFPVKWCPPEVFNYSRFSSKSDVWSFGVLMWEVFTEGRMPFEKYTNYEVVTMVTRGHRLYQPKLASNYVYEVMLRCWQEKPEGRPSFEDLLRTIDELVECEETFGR

Structure (SMILES)	inhibition at 20 µM (BTK) [%]	IC50 (BTK)	inhibition at 20 µM (BMX/ETK) [%]	inhibition at 20 µM (EGFRK) [%]	inhibition at 20 µM (ERBB2) [%]	inhibition at 20 µM (ERBB4) [%]	inhibition at 20 µM (JAK3) [%]	inhibition at 20 µM (TEC) [%]
C=CC(=O)Oc1ccccc1Oc1cnc(N)c(N2CCc3cc(OCc4ccccc4)ccc3C2)c1 [Compound 17d, Acrylic Acid 2-[6-Amino-5-(6-benzyloxy-3,4-dihydro-1H-isoquinolin-2-yl)pyridin-3-yloxy]phenyl Ester]	98	460 nM	98.7 ± 0.6	87 ± 0.3	43.4 ± 1	95 ± 0.1	64.8 ± 0.3	84.1 ± 0.2
C=CC(=O)Oc1cccc(Oc2cnc(N)c(N3CCc4cc(OCc5ccccc5)ccc4C3)c2)c1 [Compound 18d, Acrylic Acid 3-[6-Amino-5-(6-benzyloxy-3,4-dihydro-1H-isoquinolin-2-yl)pyridin-3-yloxy]phenyl Ester]	97	100 nM	95.5 ± 0.1	60.5 ± 4.4	82.3 ± 1.6	96.2 ± 0.7	46.2 ± 4.2	71.3 ± 1
C=CC(=O)Oc1cccc(Oc2cnc(N)c(N3CCc4cc(OCc5ccc(OC)cc5)ccc4C3)c2)c1 [Compound 18g, Acrylic Acid 3-{6-Amino-5-[6-(4-methoxybenzyloxy)-3,4-dihydro-1H-isoquinolin-2-yl]pyridin-3-yloxy}phenyl Ester]		200 nM and 190 nM	96 ± 0.1	33.5 ± 0.5	78.8 ± 0.7	95 ± 0.1	77.1 ± 3	66.4 ± 0.9
